The source of these data is article PMC10294832, “Investigation of Naphthyl–Polyamine Conjugates as Antimicrobials and Antibiotic Enhancers” (Antibiotics, 2023).

The test system of data set [1] is P. aeruginosa (PAO1 or ATCC 27853). The experiment in a line: Antimicrobial MIC, P. aeruginosa. Type of data set: cell-based. The note with it: Pseudomonas aeruginosa; P. aeruginosa (PAO1 or ATCC 27853); mean (n = 3); read-out: MIC P. a. The method, boiled down: (§1)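 E. coli and P. aeruginosa susceptibility was determined in-house following previously reported protocols. C. albicans and C. neoformans were tested by the Community for Open Antimicrobial Drug Discovery (University of Queensland) using its standard protocols. Values are MICs.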

Data set [2] has as its system E. coli (ATCC 25922). The data set is described as follows: Antimicrobial MIC, E. coli. It is filed as cell-based, Escherichia coli. To be noted: mean (n = 2). Summed up: as §1
Data set [3] has as its system E. coli (ATCC 25922). The experiment in a line: Enhancement of erythromycin activity. Type of data set: cell-based, Escherichia coli. The note with it: for Eryth/E.c: concentration required to restore erythromycin activity (combination MIC): erythromycin fixed at 10.9 µM (8 µg/mL), E. coli (ATCC 25922); for Eryth/E.c fold change: ratio between intrinsic MIC of test compound and combination MIC, erythromycin 10.9 µM, E. coli. As to the method: Restoring enhancer concentrations were determined using previously reported protocols.

The nature of the next data set: Cytotoxicity assay. It is filed as cell-based, human. The note with it: human, HEK293 human embryonic kidney cells, concentration at 50% cytotoxicity on HEK293 cells; mean (n = 2). How it is done: (§2) Cytotoxicity assays were conducted using the protocols previously reported.
Data set [4] relates to HEK293 human embryonic kidney cells. The experiment in a line: Cytotoxicity assay. It is filed as cell-based. To be noted: concentration at 50% cytotoxicity on HEK293 cells; mean (n = 2). As to the method:
as §2

Data set [5] concerns A. baumannii (ATCC 19606). The data set is described as follows: Antimicrobial MIC, A. baumannii. It is filed as cell-based, Acinetobacter baumannii. To be noted: Acinetobacter baumannii, ATCC19606, A. baumannii (ATCC 19606); mean (n = 2).
Data set [6] relates to C. neoformans (ATCC 208821). The experiment in a line: Antifungal MIC, C. neoformans. To be noted: Cryptococcus neoformans, ATCC208821, C. neoformans (ATCC 208821); mean (n = 2). It is filed as cell-based, Cryptococcus neoformans. Summed up: as §1
For data set [7], the system named is P. aeruginosa (ATCC 27853). The data set is described as follows: Enhancement of doxycycline activity. The note with it: for Concentration of test compound required to restore doxycycline activity / Dox/P.a: concentration required to restore doxycycline activity (combination MIC): P. aeruginosa (ATCC 27853); for Dox/P.a: concentration required to restore doxycycline activity (combination MIC): doxycycline fixed at 4.5 µM (2 µg/mL). Type of data set: cell-based, Pseudomonas aeruginosa.

Another data set concerns MRSA (ATCC 43300). The experiment in a line: Antimicrobial MIC, MRSA. It is filed as cell-based, methicillin-resistant Staphylococcus aureus. To be noted: Staphylococcus aureus, MRSA (ATCC 43300); mean (n = 2); read-out: MIC MRSA.
A further data set has as its system C. albicans (ATCC 90028). The data set is described as follows: Antifungal MIC, C. albicans. It is filed as cell-based. The note with it: Candida albicans, ATCC90028, mean (n = 2). Summed up: as §1
Data set [8] concerns K. pneumoniae (ATCC 700603). The experiment in a line: Antimicrobial MIC, K. pneumoniae. It is filed as cell-based. To be noted: Klebsiella pneumoniae, ATCC700603, mean (n = 2).
Data set [9] deals with S. aureus (ATCC 25,923 or ATCC 29213). The data set is described as follows: Antimicrobial MIC, S. aureus. It is filed as cell-based, Staphylococcus aureus. The note with it: Staphylococcus aureus, mean (n = 3). The method, boiled down:
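Antifungal values reflect testing at The University of Queensland's open antimicrobial discovery facility by its standard protocols. Antibacterial MICs were measured in-house, alongside reference antibiotics, by a published method.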

The subject of the next data set is human red blood cells. The experiment in a line: Hemolytic assay. To be noted: concentration at 10% hemolytic activity on human red blood cells; mean (n = 2). Type of data set: cell-based. How it is done: Hemolysis assays were conducted using the protocols previously reported.
In data set [10] the test system is MRSA (CF-Marseille). The data set is described as follows: Real-time growth inhibition curves / MIC. Type of data set: cell-based, methicillin-resistant Staphylococcus aureus. The note with it: Staphylococcus aureus, 18-hour mark of real-time growth curve. How it is done: (§3) To conduct a detailed analysis of the antibacterial activity and initial assessment of the mechanism of action, analogue 20f was selected due to its strong antibacterial properties, and because it was devoid of any observed cytotoxic or hemolytic effects. To evaluate the kinetics of antibacterial activity, real-time growth inhibition curves were measured for two Gram-positive bacteria (S. aureus (ATCC 25923), MRSA (CF-Marseille)) and the Gram-negative bacterium E. coli (ATCC 25922). […] These values corresponded to the inhibitory concentrations observed at the 18-hour mark in the real-time growth inhibition curve plots.
(§4) Solutions of compound 20f at concentrations of 2, 4, and 16 µg/mL were each tested in triplicate against S. aureus (ATCC 25923), MRSA (CF-Marseille), and E. coli (ATCC 25922) following previously reported protocols.

Data set [11] deals with S. aureus (ATCC 25923). The data set is described as follows: Minimum bactericidal concentration test. It is filed as cell-based. The note with it: Staphylococcus aureus, ATCC25923, same value as MIC. As to the method:
as §3
(§5) MBC’s were determined following previously reported protocols.

Data set [12] concerns E. coli (ATCC 25922). The experiment in a line: Minimum bactericidal concentration test. It is filed as cell-based. To be noted: Escherichia coli, ATCC25922, same value as MIC. As to the method:
as §3, §5

Data set [13] deals with S. aureus (ATCC 25923). The data set is described as follows: Real-time growth inhibition curves / MIC. Type of data set: cell-based. The note with it: Staphylococcus aureus, ATCC25923, 18-hour mark of real-time growth curve. As to the method:
as §3, §4

Data set [14] has as its system E. coli (ATCC 25922). The data set is described as follows: Real-time growth inhibition curves / MIC. It is filed as cell-based. To be noted: Escherichia coli, ATCC25922, 18-hour mark of real-time growth curve. How it is done:
as §3, §4

For data set [15], the system named is MRSA (CF-Marseille). The experiment in a line: Minimum bactericidal concentration test. It is filed as cell-based, methicillin-resistant Staphylococcus aureus. The note with it: Staphylococcus aureus, same value as MIC. How it is done:
as §3, §5

The next data set deals with E. coli. Further details: method as in PMID 15225864. The note with it: novobiocin and erythromycin; weak effect; cited from earlier work.
The mark [16] stands for this setting: Escherichia coli, ATCC25922, E. coli (ATCC 25922).

Structures are written as SMILES. Several values for one entry are separate records, joined by “and”; a condition that tells them apart may be missing. Identical values can stand only once.

For `O=C(NCCCNCCCCNCCCNC(=O)c1ccc2ccccc2c1)c1ccc2ccccc2c1.O=C(O)C(F)(F)F.O=C(O)C(F)(F)F` [Compound 19a, N^1,N^4-Bis(3-(2-naphthamido)propyl)butane-1,4-diaminium 2,2,2-trifluoroacetate], the melting point (in general, the temperature, or range, at which the solid turns liquid) was 132 to 135 °C. Besides, in data set [1], the MIC – broadly, the lowest concentration found to suppress growth – is 677 µM. In the data set with E. coli (ATCC 25922) [2] (setting [16]), this molecule showed an MIC of 271 µM. Further, in the data set with E. coli (ATCC 25922) [3], the “Eryth/E.c: concentration required to restore erythromycin activity (combination MIC)” value stood at 4.2 µM and the Eryth/E.c fold change came to 64 fold. Also, half-maximal inhibition in the data set “Cytotoxicity assay” (IC50) was put at 26 µM. For the same molecule, in data set [4], the IC50 (usually the concentration that inhibits the measured activity by half) stood at 26.4 µM. In [5], this molecule registered an MIC of over 43.3 µM. The MIC in [6] was 21.7 µM. Also, the “Concentration of test compound required to restore doxycycline activity” value (shortened to “Concentration of test compound required”) in data set [7] (doxycycline concentration 2 µg/mL) came out at 16.9 µM. Further, the “Concentration of test compound required” value in data set [7] (doxycycline concentration 4 µg/mL) is 8.5 µM. In addition, the “Concentration of test compound required” value in [7] (doxycycline concentration 6 µg/mL) was 8.5 µM. In addition, the “Concentration of test compound required” value in data set [7] (doxycycline concentration 8 µg/mL) amounted to 4.2 µM. Besides, in [7], the “Dox/P.a: concentration required to restore doxycycline activity (combination MIC)” value stood at 16.9 µM. In the data set on MRSA (ATCC 43300), the MIC came to 43.3 µM. In addition, the MIC against C. albicans (ATCC 90028) was over 43.3 µM. Also, the MIC in data set [8] was over 43.3 µM. Besides, the MIC in data set [9] is 34 µM. The “Hemolysis HC10” value in the data set with human red blood cells is over 43.3 µM.
With `O=C(CCC(=O)Nc1ccc2ccccc2c1)NCCCNCCCCCCCCCCCCNCCCNC(=O)CCC(=O)Nc1ccc2ccccc2c1.O=C(O)C(F)(F)F.O=C(O)C(F)(F)F` [Compound 20f, N^1,N^12-Bis(3-(4-(naphthalen-2-ylamino)-4-oxobutanamido)propyl)dodecane-1,12-diaminium 2,2,2-trifluoroacetate], the MIC is 3.15 µM and 3.13 µg/mL with MRSA (CF-Marseille) [10]; over 100 µM in data set [1]; 6.3 µM in the data set on E. coli (ATCC 25922) [2] (E. coli (ATCC 25922)); 6.3 to 12.5 µM against E. coli (ATCC 25922) [2] (setting [16]); over 32 µM in data set [5]; at most 0.25 µM in [6]. The MIC in the data set on MRSA (ATCC 43300) is at most 0.25 µM; against C. albicans (ATCC 90028) it was over 32 µM; in data set [8], over 32 µM; in data set [9], 3.12 µM; in the data set with S. aureus (ATCC 25923) [13], 3.15 µM and 3.13 µg/mL; in the data set with E. coli (ATCC 25922) [14] it was 6.29 µM and 6.25 µg/mL. For the same molecule, in the data set on E. coli (ATCC 25922) [3], the “Eryth/E.c: concentration required to restore erythromycin activity (combination MIC)” value is recorded as 3.15 µM. Also, in the data set on E. coli (ATCC 25922) [3], the Eryth/E.c fold change is 2 fold. The molecule also returned an IC50 in “Cytotoxicity assay” of over 32.2 µM. In addition, the minimum bactericidal concentration (MBC) (commonly the smallest concentration meeting the test's criterion for killing) with S. aureus (ATCC 25923) [11] is 3.15 µM and 3.13 µg/mL; in the data set on E. coli (ATCC 25922) [12], 6.29 µM and 6.25 µg/mL; against MRSA (CF-Marseille) [15], 3.13 µg/mL and 3.15 µM. In data set [7], the “Dox/P.a: concentration required to restore doxycycline activity (combination MIC)” value was determined as 12.6 µM. The Dox/P.a fold change in data set [7] (ratio between intrinsic MIC of test compound and combination MIC, doxycycline 4.5 µM, P. aeruginosa) is listed as over 8 fold. Besides, the “Hemolysis HC10” value in the data set on human red blood cells is reported as over 32.2 µM.
In the case of `NCCCNCCCCNCCCNC(=O)Cc1cccc2ccccc12` [Compound 22, naphthylacetylspermine], the “doses rendering E. coli sensitive to hydrophobic antibiotics” value with E. coli is 64 to 128 µg/mL.
